Measured values reported in patent publication EP3884941A1, “INFLAMMASOME INHIBITORS AND USE THEREOF” (CENTRO DE INVESTIGACION PRINCIPE FELIPE, priority 2020, dated 2021).
“Also recorded” adds a separate entry of the source. Blank lines part the entries; values can stand above or below the compound they belong to. Peptide text beside a SMILES is read from it. * marks the point of attachment. Cbz = O=C(OCc1ccccc1)*; CH2F = FC*

Tests used:
[1] = target: T1, ASC-mediated PC1 activation (Homo sapiens, UniProt P29466); assay: ASC-mediated PC1 reconstitution in vitro assay (primary screening); format: biochemical; details: PC1 50 nM, ASC 300 nM, substrate Ac-WEHD-AFC; read-out: IC50
T1 construct: His; made in house; host or cells: PC1: Sf9 insect cells (baculovirus)
T1 sequence (P29466 1-404): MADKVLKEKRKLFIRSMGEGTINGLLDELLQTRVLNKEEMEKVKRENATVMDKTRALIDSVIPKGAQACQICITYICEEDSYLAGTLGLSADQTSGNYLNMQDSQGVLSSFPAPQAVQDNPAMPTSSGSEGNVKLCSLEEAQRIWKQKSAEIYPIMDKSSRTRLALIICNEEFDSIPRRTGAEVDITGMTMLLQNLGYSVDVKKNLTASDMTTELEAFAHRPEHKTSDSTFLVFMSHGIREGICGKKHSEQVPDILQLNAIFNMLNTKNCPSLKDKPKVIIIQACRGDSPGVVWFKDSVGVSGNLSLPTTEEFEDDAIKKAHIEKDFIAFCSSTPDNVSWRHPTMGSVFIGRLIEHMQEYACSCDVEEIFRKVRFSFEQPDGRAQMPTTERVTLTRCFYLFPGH
Experimental: Recombinant PC1 (50 nM) was preincubated with the indicated concentrations of compounds for 20 min at RT in Assay Buffer (20 mM HEPES pH 7.5, 10 mM KCI, 1.5 mM MgCl2, 1mM EDTA, 1 mM EGTA, 1 mM DTT). Then 300 nM of ASC were added and incubated for another 10 min period. Caspase-1 activation was measured using fluorogenic substrate Ac-WEHD-AFC (80 µM; Enzo Life Sciences) by continuously monitoring the release of the AFC (7-Amino-4-trifluoromethylcoumarin) product in a Wallac Victor workstation. The compounds were initially tested at 20 µM with 1% of DMSO. Data are reported as the percentage of inhibition compared with the absence of the compound.
The materials and methods employed in these experiments are now described.

Recombinant caspase-1 = target: T2, Recombinant caspase-1 (Homo sapiens, UniProt P29466); assay: caspase-1 in vitro activation assay (secondary screening); format: biochemical; details: preactivated recombinant caspase-1
T2 sequence (P29466 120-297 limits assumed): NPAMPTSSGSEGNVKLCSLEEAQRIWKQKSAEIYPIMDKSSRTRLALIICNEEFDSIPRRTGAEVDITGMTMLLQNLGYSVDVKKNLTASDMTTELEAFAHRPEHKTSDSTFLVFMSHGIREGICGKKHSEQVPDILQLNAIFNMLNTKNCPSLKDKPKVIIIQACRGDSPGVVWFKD
T2 sequence (P29466 317-404 limits assumed): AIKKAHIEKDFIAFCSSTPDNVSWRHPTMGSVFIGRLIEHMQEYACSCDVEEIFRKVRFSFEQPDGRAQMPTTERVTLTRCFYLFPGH
Experimental: Recombinant caspase-1 (50 nM) was incubated with the indicated concentrations of compounds for 20 min at RT in Assay Buffer. Then fluorogenic substrate Ac-WEHD-AFC (80 µM) was added, and activity was monitored in a Wallac Victor workstation. Data are reported as the percentage of inhibition compared with the absence of the inhibitor.

NLRP3 inflammasome [2] = assay: inflammasome activation cellular assay, LPS plus ATP, THP-1 cells; format: cell-based, human; details: THP-1, LPS + ATP; pyroptosis / cell viability; MM01 1, 2.5 or 5 µM, VX-765 5 µM
Experimental: The MM01 compound was evaluated in the THP-1, or PMA-differentiated THP-1 cells (50 nM PMA for 24h) stimulated with lipopolysaccharide (LPS) plus adenosine triphosphate (ATP) to stimulate ASC-dependent inflammasomes NLRP3. Briefly, 1x10^6 cells were seeded in 6-well plates in 1 mL RPMI media that contained 1% FBS. Cells were either mock-treated or primed with compounds at the indicated concentrations for 30 min, followed by treatment with 100 ng/mL LPS (Sigma) and 2.5 mM ATP (Sigma) for 6 h at 37°C. In the case of nigericin stimulation, cells were primed with LPS for 3h, and then 10 µM nigericin (Sigma) was added for 30 min. Supernatants were harvested and clarified by centrifugation at 1500 rpm at RT, and a cytokine analysis was performed. Both IL-1β secretion and the release of IL-18were monitored by an ELISA assay (BD OptEIA™ Human IL-1β ELISA Kit and Human IL-18 Module Set eBioscience) following the manufacturer's instructions. Cell viability was analyzed in parallel by evaluating the release of lactate dehydrogenase (LDH) according to a commercial kit (CytoTox-ONE™ Homogeneous Membrane Integrity Assay; Promega). The release of LDH was calculated using the formula: the release of LDH (%) = 100x (Abs490 treated -Abs490 untreated cells)/ Abs490 untreated cells lysed with Triton 9% (maximum release of LDH).
The supernatants of the treated cells were precipitated by the chloroform-methanol method. Pellets were obtained by lysing cells in 25 mM of Tris-HCI pH 7.4, 1 mM EDTA, 1 mM EGTA and 1% SDS, plus protease and phosphatase inhibitors. The protein concentration was determined by the BCA protein assay. Samples were separated in a 14% SDS-PAGE gel, transferred to a nitrocellulose membrane and blocked with 5% skimmed milk for 1 h. Then the membrane was incubated overnight with primary antibodies: α-casp1 (1:1000; Cell Signaling 2225), α-IL-1β (1:1000; Acris R1130P), α-NLRP3 (1:1000; Cell Signaling 15101), α-tubulin (1:3000; Abcam ab6160) at 4°C. Membranes were washed and probed with the appropriate secondary antibody conjugated with peroxidase for enhanced chemiluminescence detection (Amersham Pharmacia Biotech).

NLRP3 inflammasome [3] = assay: human PBMCs cellular assay, LPS plus ATP; format: cell-based; details: human PBMCs, LPS and ATP, VX-765 5 µM
Experimental: Human peripheral blood mononuclear cells (PBMCs) are lymphocytes and monocytes. PBMCs were separated from the whole blood by a density gradient centrifugation method using Ficoll Histopaque. Purified PBMCs were plated in 24-well plates at 5000000 cells/well in free-serum RPMI medium. Cells were primed for 3 h with 10 ng/ml pure LPS followed by 4 h with compounds and 5 mM ATP. Supernatants were harvested and clarified by centrifugation at 1500 rpm at RT and cytokine and caspase-1 activation analysis was performed as previously described.

[4] = tested on: ASC specks in THP1-ASC-GFP cells; assay: ASC speck assay; format: cell-based, human; details: THP-1 ASC GFP, LPS 100 ng/mL + nigericin 10 µM; MM01 10 µM, VX-765 5 µM
Experimental: THP1-ASC-GFP cells were seeded at 1×10^6/ml the day prior to use in experiments on 35 mm glass-bottom culture dishes. The following day medium was replaced containing the indicated inhibitors or vehicle for 30 min. Cells were then primed with 100 ng/ml LPS for 3h and stimulated with 10 µM nigericin for 30 min. Samples were fixed in 4% paraformaldehyde (PFA) for 10 min at RT and washed several times. Coverslips were prepared in mounting medium plus DAPI and analyzed in a Leica SP8 confocal microscope.

- IC50 [1]: 300 ± 100 nM
Compound: CCCCN1C(=O)/C(=C2\SC(=S)N(Cc3ccco3)C2=O)c2cc(Br)ccc21

- caspase-1 activity (Recombinant caspase-1): inhibits
Compound: CC(NC(=O)C(NC(=O)OCc1ccccc1)C(C)C)C(=O)NC(CC(=O)O)C(=O)CF (stereo not drawn) [zVAD, reference compound] (Cbz-Val-Ala-Asp-CH2F; configuration not given here)

- IC50 [1]: 1500 ± 800 nM
Compound: COCCN1C(=O)/C(=C2/C(=O)Nc3ccc(Br)cc32)SC1=S

Compound: CCO[C@@H]1OC(=O)C[C@@H]1NC(=O)[C@@H]1CCCN1C(=O)[C@@H](NC(=O)c1ccc(N)c(Cl)c1)C(C)(C)C [VX-765, reference compound]
- LDH release (NLRP3 inflammasome [2]): does not decrease; also recorded: no recovery of cell viability
- inflammatory cell death (NLRP3 inflammasome [3]; LDH release): did not protect
- cytokine release (NLRP3 inflammasome [3]): able to inhibit
- ASC speck formation [4]: not inhibited
